Experimental data taken from article PMC5218480 (PLoS ONE, 2017).

Test system: MV-4-11 cells
Experiment: Gene expression microarray analysis (Affymetrix PrimeView) and GSEA
Format: cell-based, human
Design: RFU PODN (11730768_x_at) / Fold change /veh PODN (11730768_x_at) / RFU LINC00158 (11744669_a_at) / Fold change /veh LINC00158 (11744669_a_at) / RFU DUSP10 (11751237_a_at) / Fold change /veh DUSP10 (11751237_a_at) / RFU ID3 (11757404_x_at) / Fold change /veh ID3 (11757404_x_at) / RFU PLEKHG5 (11737974_s_at) / Fold change /veh PLEKHG5 (11737974_s_at) / RFU LRRC4B (11730491_at) / Fold change /veh LRRC4B (11730491_at) / RFU GIMAP4 (11747438_a_at) / Fold change /veh GIMAP4 (11747438_a_at) / RFU KRT8 (11758183_x_at) / Fold change /veh KRT8 (11758183_x_at) / RFU CNN1 (11734310_a_at) / Fold change /veh CNN1 (11734310_a_at) / RFU VPS37D (11726825_at) / Fold change /veh VPS37D (11726825_at) / RFU C10orf10 (11716522_x_at) / Fold change /veh C10orf10 (11716522_x_at) / RFU KIR2DL2 /// KIR2DL4 /// KIR2DL5A /// KIR2DL5B /// KIR2DS1 /// KIR2DS2 /// KIR2DS3 /// KIR2DS4 /// KIR3DL3 /// KIR3DL3 /// KIR3DS1 (11738374_at) / Fold change /veh KIR2DL2 /// KIR2DL4 /// KIR2DL5A /// KIR2DL5B /// KIR2DS1 /// KIR2DS2 /// KIR2DS3 /// KIR2DS4 /// KIR3DL3 /// KIR3DL3 /// KIR3DS1 (11738374_at) / RFU C1QL1 (11718748_at) / Fold change /veh C1QL1 (11718748_at) / RFU TMPRSS4 (11747572_a_at) / Fold change /veh TMPRSS4 (11747572_a_at) / RFU HAMP (11756126_x_at) / Fold change /veh HAMP (11756126_x_at) / RFU RNFT2 (11725882_a_at) / Fold change /veh RNFT2 (11725882_a_at) / RFU NR4A2 (11747474_a_at) / Fold change /veh NR4A2 (11747474_a_at) / RFU ABCC12 (11746883_a_at) / Fold change /veh ABCC12 (11746883_a_at) / RFU TMEM136 (11760407_x_at) / Fold change /veh TMEM136 (11760407_x_at) / RFU CLDN22 /// WWC2 (11732394_at) / Fold change /veh CLDN22 /// WWC2 (11732394_at) / RFU HLA-DPB1 (11760878_x_at) / Fold change /veh HLA-DPB1 (11760878_x_at) / RFU SPINT1 (11716480_a_at) / Fold change /veh SPINT1 (11716480_a_at) / RFU GAP43 (11754022_s_at) / Fold change /veh GAP43 (11754022_s_at) / RFU A4GNT (11735810_at) / Fold change /veh A4GNT (11735810_at) / RFU PRB3 (11715151_x_at) / Fold change /veh PRB3 (11715151_x_at) / RFU TUBB4B (11761932_at) / Fold change /veh TUBB4B (11761932_at) / RFU CAPN14 (11732068_a_at) / Fold change /veh CAPN14 (11732068_a_at) / RFU TMCC2 (11721928_a_at) / Fold change /veh TMCC2 (11721928_a_at) / RFU IRGQ (11745062_a_at) / Fold change /veh IRGQ (11745062_a_at) / RFU FAM174B (11720279_a_at) / Fold change /veh FAM174B (11720279_a_at) / RFU TMPRSS4 (11748680_a_at) / Fold change /veh TMPRSS4 (11748680_a_at) / RFU FAM212B (11763350_a_at) / Fold change /veh FAM212B (11763350_a_at) / RFU PLEKHG5 (11743358_a_at) / Fold change /veh PLEKHG5 (11743358_a_at) / RFU ZSCAN30 (11745921_a_at) / Fold change /veh ZSCAN30 (11745921_a_at) / RFU CMKLR1 (11741424_a_at) / Fold change /veh CMKLR1 (11741424_a_at) / RFU LOC101060620 /// MAPK8IP1 (11723275_at) / Fold change /veh LOC101060620 /// MAPK8IP1 (11723275_at) / RFU SPTSSB (11747773_x_at) / Fold change /veh SPTSSB (11747773_x_at) / RFU PRSS12 (11739890_at) / Fold change /veh PRSS12 (11739890_at) / RFU BIN1 (11741810_x_at) / Fold change /veh BIN1 (11741810_x_at) / RFU WNT11 (11732464_a_at) / Fold change /veh WNT11 (11732464_a_at) / RFU C10orf10 (11716521_a_at) / Fold change /veh C10orf10 (11716521_a_at) / RFU C5orf56 (11738089_at) / Fold change /veh C5orf56 (11738089_at) / RFU CYB561 (11721691_x_at) / Fold change /veh CYB561 (11721691_x_at) / RFU ANKRD19P (11752326_a_at) / Fold change /veh ANKRD19P (11752326_a_at) / RFU OR2T12 /// OR2T33 /// OR2T8 (11738714_s_at) / Fold change /veh OR2T12 /// OR2T33 /// OR2T8 (11738714_s_at) / RFU VCAN (11748164_a_at) / Fold change /veh VCAN (11748164_a_at) / RFU JSRP1 (11732532_at) / Fold change /veh JSRP1 (11732532_at) / RFU KRTAP10-11 (11738290_x_at) / Fold change /veh KRTAP10-11 (11738290_x_at) / RFU MYO3A (11730013_a_at) / Fold change /veh MYO3A (11730013_a_at) / RFU EBF3 (11725865_a_at) / Fold change /veh EBF3 (11725865_a_at) / RFU CAMK2N1 (11719241_x_at) / Fold change /veh CAMK2N1 (11719241_x_at) / RFU C5orf56 (11738088_a_at) / Fold change /veh C5orf56 (11738088_a_at) / RFU OLFML3 (11715873_a_at) / Fold change /veh OLFML3 (11715873_a_at) / RFU LOC100653217 /// NTM (11731650_a_at) / Fold change /veh LOC100653217 /// NTM (11731650_a_at) / RFU MAPK11 (11762145_a_at) / Fold change /veh MAPK11 (11762145_a_at) / RFU FIZ1 (11724087_x_at) / Fold change /veh FIZ1 (11724087_x_at) / RFU OASL (11726364_x_at) / Fold change /veh OASL (11726364_x_at) / RFU SOX15 (11748057_x_at) / Fold change /veh SOX15 (11748057_x_at) / RFU CD79A (11719716_a_at) / Fold change /veh CD79A (11719716_a_at) / RFU HIST1H1D (11736915_at) / Fold change /veh HIST1H1D (11736915_at) / RFU CASKIN2 (11723855_a_at) / Fold change /veh CASKIN2 (11723855_a_at) / RFU LOC730098 (11760151_x_at) / Fold change /veh LOC730098 (11760151_x_at) / RFU OR4N2 (11742367_at) / Fold change /veh OR4N2 (11742367_at) / RFU PRRT2 (11749266_a_at) / Fold change /veh PRRT2 (11749266_a_at) / RFU SNX32 (11753110_a_at) / Fold change /veh SNX32 (11753110_a_at) / RFU CDHR5 (11726645_a_at) / Fold change /veh CDHR5 (11726645_a_at) / RFU RCAN1 (11760418_a_at) / Fold change /veh RCAN1 (11760418_a_at) / RFU FAM167A (11723789_a_at) / Fold change /veh FAM167A (11723789_a_at) / RFU FAM26E (11764081_at) / Fold change /veh FAM26E (11764081_at) / RFU ISYNA1 (11749810_s_at) / Fold change /veh ISYNA1 (11749810_s_at) / RFU ACY1 (11761880_at) / Fold change /veh ACY1 (11761880_at) / RFU 11764098_at / Fold change /veh 11764098_at / RFU SAMD14 (11745864_x_at) / Fold change /veh SAMD14 (11745864_x_at) / RFU NPB (11741838_a_at) / Fold change /veh NPB (11741838_a_at) / RFU TMPRSS6 (11731388_a_at) / Fold change /veh TMPRSS6 (11731388_a_at) / RFU KRTAP10-2 (11738614_at) / Fold change /veh KRTAP10-2 (11738614_at) / RFU ARHGAP8 /// PRR5-ARHGAP8 (11727945_x_at) / Fold change /veh ARHGAP8 /// PRR5-ARHGAP8 (11727945_x_at) / RFU KRTAP5-7 /// NADSYN1 (11734609_at) / Fold change /veh KRTAP5-7 /// NADSYN1 (11734609_at) / RFU RASL12 (11751679_a_at) / Fold change /veh RASL12 (11751679_a_at) / RFU CDKN2B (11736163_a_at) / Fold change /veh CDKN2B (11736163_a_at) / RFU PRF1 (11729649_at) / Fold change /veh PRF1 (11729649_at) / RFU, ZNF638 /// ZNF638-IT1 / Fold change vs veh, ZNF638 /// ZNF638-IT1 / RFU, PANK3 / Fold change vs veh, PANK3 / RFU, SH3YL1 / Fold change vs veh, SH3YL1 / RFU, ZEB2 / Fold change vs veh, ZEB2 / RFU, NRIP1 / Fold change vs veh, NRIP1 / RFU, PTTG1IP / Fold change vs veh, PTTG1IP / RFU, CAPN2 / Fold change vs veh, CAPN2 / RFU, MED14 / Fold change vs veh, MED14 / RFU, SNORA58 / Fold change vs veh, SNORA58 / RFU, C1orf63 / Fold change vs veh, C1orf63 / RFU, LRRFIP1 / Fold change vs veh, LRRFIP1 / RFU, NDUFAF7 / Fold change vs veh, NDUFAF7 / RFU, SLC12A2 / Fold change vs veh, SLC12A2 / RFU, IBTK / Fold change vs veh, IBTK / RFU, ESF1 / Fold change vs veh, ESF1 / Fold change vs veh, TMEM50B / RFU, TAOK1 / Fold change vs veh, TAOK1 / RFU, ACBD3 / Fold change vs veh, ACBD3 / RFU, TMA16 / Fold change vs veh, TMA16 / RFU, RWDD3 / Fold change vs veh, RWDD3 / RFU, BCAT1 / Fold change vs veh, BCAT1 / RFU, EDEM3 / Fold change vs veh, EDEM3 / RFU, TMEM33 / Fold change vs veh, TMEM33 / RFU, WDR75 / Fold change vs veh, WDR75 / RFU, AHCTF1 / Fold change vs veh, AHCTF1 / RFU, TFRC / Fold change vs veh, TFRC / RFU, ZDHHC17 / Fold change vs veh, ZDHHC17 / RFU, NOM1 / Fold change vs veh, NOM1 / RFU, ARL8B / Fold change vs veh, ARL8B / RFU, ZBTB11 / Fold change vs veh, ZBTB11 / RFU, TAMM41 / Fold change vs veh, TAMM41 / RFU, KIAA1704 /// LOC100996395 / Fold change vs veh, KIAA1704 /// LOC100996395 / RFU, ING1 / Fold change vs veh, ING1 / RFU, TRMT61B / Fold change vs veh, TRMT61B / RFU, FUBP3 / Fold change vs veh, FUBP3 / RFU, TP53 / Fold change vs veh, TP53 / RFU, TNKS2 / Fold change vs veh, TNKS2 / RFU, ZFP14 / Fold change vs veh, ZFP14 / RFU, ACTR2 / Fold change vs veh, ACTR2 / RFU, PPP3R1 / Fold change vs veh, PPP3R1 / RFU, PIK3R1 / Fold change vs veh, PIK3R1 / RFU, HNRNPA1 / Fold change vs veh, HNRNPA1 / RFU, RNF170 / Fold change vs veh, RNF170 / RFU, ZNF28 / Fold change vs veh, ZNF28 / RFU, RNGTT / Fold change vs veh, RNGTT / RFU, OGT / Fold change vs veh, OGT / RFU, BRD1 / Fold change vs veh, BRD1 / RFU, MARS / Fold change vs veh, MARS / RFU, ZNF655 / Fold change vs veh, ZNF655 / RFU, FAHD1 / Fold change vs veh, FAHD1 / RFU, BDP1 / Fold change vs veh, BDP1 / RFU, LRRCC1 / Fold change vs veh, LRRCC1 / RFU, ARID1A / Fold change vs veh, ARID1A / RFU, ZNF146 / Fold change vs veh, ZNF146 / RFU, ZNF330 / Fold change vs veh, ZNF330 / RFU, GPN3 / Fold change vs veh, GPN3 / RFU, C9orf123 / Fold change vs veh, C9orf123 / RFU, N4BP2L2 / Fold change vs veh, N4BP2L2 / RFU, ARFIP1 / Fold change vs veh, ARFIP1 / RFU, FAM179B / Fold change vs veh, FAM179B / RFU, BCL10 / Fold change vs veh, BCL10 / RFU, UHRF1BP1L / Fold change vs veh, UHRF1BP1L / RFU, BET1 / Fold change vs veh, BET1 / RFU, CNOT2 / Fold change vs veh, CNOT2 / RFU, ZNF268 / Fold change vs veh, ZNF268 / Fold change vs veh, ZNF507 / RFU, DGCR2 / Fold change vs veh, DGCR2 / RFU, WDSUB1 / Fold change vs veh, WDSUB1 / Fold change vs veh, HSP90B1 /// MIR3652 / RFU, ADSS / Fold change vs veh, ADSS / RFU, GK / Fold change vs veh, GK / RFU, ZNF148 / Fold change vs veh, ZNF148 / RFU, TAF9 / Fold change vs veh, TAF9 / RFU, SLC1A5 / Fold change vs veh, SLC1A5 / RFU, SLMO2 / Fold change vs veh, SLMO2 / RFU, ABCC4 / Fold change vs veh, ABCC4 / RFU, LOC101060439 /// RAP1B / Fold change vs veh, LOC101060439 /// RAP1B / RFU, RFX7 / Fold change vs veh, RFX7 / RFU, GTPBP10 / Fold change vs veh, GTPBP10 / RFU, CNEP1R1 / Fold change vs veh, CNEP1R1 / RFU, BIVM-ERCC5 /// ERCC5 / Fold change vs veh, BIVM-ERCC5 /// ERCC5 / RFU, ILF3 / Fold change vs veh, ILF3 / RFU 11762660_at / Fold change /veh 11762660_at / RFU VCAN (11757783_s_at) / Fold change /veh VCAN (11757783_s_at) / RFU DDX43 (11728927_at) / Fold change /veh DDX43 (11728927_at) / RFU KRT8 (11758188_x_at) / Fold change /veh KRT8 (11758188_x_at) / RFU NKD1 (11759106_at) / Fold change /veh NKD1 (11759106_at) / RFU SRD5A1 (11742802_a_at) / Fold change /veh SRD5A1 (11742802_a_at) / RFU TPSAB1 /// TPSB2 (11721975_s_at) / Fold change /veh TPSAB1 /// TPSB2 (11721975_s_at) / RFU GSTM3 (11746129_a_at) / Fold change /veh GSTM3 (11746129_a_at) / RFU IL23R (11737362_x_at) / Fold change /veh IL23R (11737362_x_at) / RFU TMEM51 (11727254_a_at) / Fold change /veh TMEM51 (11727254_a_at) / RFU PIWIL2 (11732686_x_at) / Fold change /veh PIWIL2 (11732686_x_at) / RFU ORM1 (11744905_x_at) / Fold change /veh ORM1 (11744905_x_at) / RFU CCDC152 (11743942_at) / Fold change /veh CCDC152 (11743942_at) / RFU ECM1 (11717891_a_at) / Fold change /veh ECM1 (11717891_a_at) / RFU IL23R (11748794_a_at) / Fold change /veh IL23R (11748794_a_at) / RFU TNFAIP8L3 (11732012_x_at) / Fold change /veh TNFAIP8L3 (11732012_x_at) / RFU MBOAT4 (11741988_at) / Fold change /veh MBOAT4 (11741988_at) / RFU 11764193_at / Fold change /veh 11764193_at / RFU TMEM53 (11763286_at) / Fold change /veh TMEM53 (11763286_at) / RFU MAGEB2 (11727129_at) / Fold change /veh MAGEB2 (11727129_at) / RFU TMEM200A (11744735_a_at) / Fold change /veh TMEM200A (11744735_a_at) / RFU CCDC152 (11751479_a_at) / Fold change /veh CCDC152 (11751479_a_at) / RFU FAM211A (11726209_a_at) / Fold change /veh FAM211A (11726209_a_at) / RFU RGS16 (11746705_a_at) / Fold change /veh RGS16 (11746705_a_at) / RFU VCAN (11755009_s_at) / Fold change /veh VCAN (11755009_s_at) / RFU RHOB (11743442_s_at) / Fold change /veh RHOB (11743442_s_at) / RFU RGS16 (11720943_a_at) / Fold change /veh RGS16 (11720943_a_at) / RFU RGS16 (11720944_at) / Fold change /veh RGS16 (11720944_at) / RFU, VPS4B / Fold change vs veh, VPS4B / RFU, CREB1 / Fold change vs veh, CREB1 / RFU, DNAJC13 / Fold change vs veh, DNAJC13 / RFU, GNAQ / Fold change vs veh, GNAQ / RFU, CDK5R1 / Fold change vs veh, CDK5R1 / RFU, ZRANB3 / Fold change vs veh, ZRANB3 / RFU, CUL4A / Fold change vs veh, CUL4A / RFU, CCNY / Fold change vs veh, CCNY / RFU, UFL1 / Fold change vs veh, UFL1 / RFU, COG3 / Fold change vs veh, COG3 / RFU, DIAPH2 / Fold change vs veh, DIAPH2 / RFU, SKA2 / Fold change vs veh, SKA2 / RFU, AFF3 / Fold change vs veh, AFF3 / RFU, LMF1 / Fold change vs veh, LMF1 / RFU, IPO11 / Fold change vs veh, IPO11 / RFU, DFFB / Fold change vs veh, DFFB / RFU, FOXP1 / Fold change vs veh, FOXP1 / RFU, CARD8 / Fold change vs veh, CARD8 / RFU, STRN3 / Fold change vs veh, STRN3 / RFU, ADK / Fold change vs veh, ADK / RFU, RASSF2 / Fold change vs veh, RASSF2 / RFU, WIPF1 / Fold change vs veh, WIPF1 / RFU, LARP1B / Fold change vs veh, LARP1B / RFU, RASA1 / Fold change vs veh, RASA1 / RFU, RB1 / Fold change vs veh, RB1 / RFU, PPFIA1 / Fold change vs veh, PPFIA1 / RFU, MAT2A / Fold change vs veh, MAT2A / RFU, CCT5 / Fold change vs veh, CCT5 / RFU, WDR92 / Fold change vs veh, WDR92 / RFU, CUX1 / Fold change vs veh, CUX1 / RFU, TTC7A / Fold change vs veh, TTC7A / RFU, TMEM135 / Fold change vs veh, TMEM135 / RFU, DEPTOR / Fold change vs veh, DEPTOR / RFU, CPM / Fold change vs veh, CPM / RFU, DNAJB6 / Fold change vs veh, DNAJB6 / RFU, CACNA2D3 / Fold change vs veh, CACNA2D3 / RFU, DTX4 / Fold change vs veh, DTX4 / RFU, TFCP2 / Fold change vs veh, TFCP2 / RFU, GMCL1 /// GMCL1P1 / Fold change vs veh, GMCL1 /// GMCL1P1 / RFU, AEBP2 / Fold change vs veh, AEBP2 / RFU, SNHG1 /// SNORD22 /// SNORD25 /// SNORD26 /// SNORD27 /// SNORD28 /// SNORD29 /// SNORD31 / Fold change vs veh, SNHG1 /// SNORD22 /// SNORD25 /// SNORD26 /// SNORD27 /// SNORD28 /// SNORD29 /// SNORD31 / Fold change (Aza/veh), C12orf56 (ProbeSet 11735607_a_at) / Fold change (ACY-1035/veh), C12orf56 (ProbeSet 11735607_a_at) / Fold change (Aza/veh), FGFR1OP (ProbeSet 11751329_s_at) / Fold change (ACY-1035/veh), FGFR1OP (ProbeSet 11751329_s_at) / Fold change (Aza/veh), VPS36 (ProbeSet 11739960_a_at) / Fold change (ACY-1035/veh), VPS36 (ProbeSet 11739960_a_at) / RFU SYPL1 (11715823_x_at) / Fold change /veh SYPL1 (11715823_x_at) / RFU IGFBP7 (11715501_s_at) / Fold change /veh IGFBP7 (11715501_s_at) / RFU REEP3 (11722064_at) / Fold change /veh REEP3 (11722064_at) / RFU IGLL1 (11728026_x_at) / Fold change /veh IGLL1 (11728026_x_at): dose or concentration left out as unconfirmed
Settings: ProbeSet 11727641_at; LIST B

Nc1ncn([C@@H]2O[C@H](CO)[C@@H](O)[C@H]2O)c(=O)n1 [azacitidine]
RFU, NOM1: 178.62 RFU
